From ChEMBL document CHEMBL1138184, “Synthesis and structure-activity relationship studies of 1,3-diarylprop-2-yn-1-ones: dual inhibitors of cyclooxygenases and lipoxygenases” (J Med Chem, 2006)

target: T1, Seed linoleate 13S-lipoxygenase-1 (Glycine max, UniProt P08170); settings: not given
T1 sequence (P08170 whole entry): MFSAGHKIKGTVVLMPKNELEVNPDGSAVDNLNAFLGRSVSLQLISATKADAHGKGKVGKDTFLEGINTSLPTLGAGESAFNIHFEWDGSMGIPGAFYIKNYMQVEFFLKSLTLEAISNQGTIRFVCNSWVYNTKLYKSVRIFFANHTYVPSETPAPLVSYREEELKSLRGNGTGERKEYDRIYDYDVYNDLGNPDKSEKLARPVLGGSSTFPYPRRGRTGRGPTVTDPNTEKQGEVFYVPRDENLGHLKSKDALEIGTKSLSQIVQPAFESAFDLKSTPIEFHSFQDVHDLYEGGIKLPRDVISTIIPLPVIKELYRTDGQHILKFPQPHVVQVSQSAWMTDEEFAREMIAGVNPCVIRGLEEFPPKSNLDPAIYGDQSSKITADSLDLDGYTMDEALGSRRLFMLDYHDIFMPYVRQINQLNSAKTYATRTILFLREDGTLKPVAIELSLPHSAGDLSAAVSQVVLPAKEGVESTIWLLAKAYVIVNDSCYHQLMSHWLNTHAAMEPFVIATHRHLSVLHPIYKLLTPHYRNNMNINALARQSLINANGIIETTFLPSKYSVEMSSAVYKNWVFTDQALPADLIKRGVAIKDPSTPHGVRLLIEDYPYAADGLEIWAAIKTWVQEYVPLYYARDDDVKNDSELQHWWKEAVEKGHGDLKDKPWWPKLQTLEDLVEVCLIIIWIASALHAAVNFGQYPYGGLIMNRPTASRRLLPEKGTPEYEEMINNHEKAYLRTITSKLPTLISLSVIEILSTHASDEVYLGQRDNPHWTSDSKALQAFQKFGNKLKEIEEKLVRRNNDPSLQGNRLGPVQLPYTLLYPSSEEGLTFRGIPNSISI

| SMILES | IC50 [µM] |
| --- | --- |
| COc1ccc(C(=O)C#Cc2ccc(S(C)(=O)=O)cc2)cc1OC | > 10 |
| CS(=O)(=O)c1ccc(C#CC(=O)c2ccc([N+](=O)[O-])cc2)cc1 | > 10 |
| CCCCc1ccc(C(=O)C#Cc2ccc(S(C)(=O)=O)cc2)cc1 | > 10 |
| CS(=O)(=O)c1ccc(C#CC(=O)c2cccc3ccccc23)cc1 | > 10 |
| CS(=O)(=O)c1ccc(C#CC(=O)c2ccno2)cc1 | > 10 |
| CC(C)c1ccc(C(=O)C#Cc2ccc(S(C)(=O)=O)cc2)cc1 | 0.36 |
| COC(=O)c1ccc(C(=O)C#Cc2ccc(S(C)(=O)=O)cc2)cc1 | 5 |
| CS(=O)(=O)c1ccc(C#CC(=O)c2ccoc2)cc1 | > 10 |
| CS(=O)(=O)c1ccc(C#CC(=O)c2ccc(S(C)(=O)=O)cc2)cc1 | > 10 |
| COc1ccc(C(=O)C#Cc2ccc(S(C)(=O)=O)cc2)c2ccccc12 | 0.3 |
| CSc1ccc(C(=O)C#Cc2ccc(S(C)(=O)=O)cc2)cc1 | 0.36 |
| CCCc1ccc(C(=O)C#Cc2ccc(S(C)(=O)=O)cc2)cc1 | 3.2 |
| CS(=O)(=O)c1ccc(C#CC(=O)c2cccc([N+](=O)[O-])c2)cc1 | 3.5 |

tested on: Rattus norvegicus; test: Anti-inflammatory activity against carrageenan-induced edema in Sprague-Dawley rat paw after 3 hrs of 30 mg/kg, po; assay type: functional; settings: not given

| SMILES | ED50 [mg/kg] |
| --- | --- |
| CS(=O)(=O)c1ccc(C#CC(=O)c2ccc(O)cc2)cc1 | 51.3 |
| CC(C)c1ccc(C(=O)C#Cc2ccc(S(C)(=O)=O)cc2)cc1 | 35 |

same assay, conditions: dose 30 mg/kg

| SMILES | inhibition in vivo at 30 mg/kg [%] |
| --- | --- |
| CS(=O)(=O)c1ccc(C#CC(=O)c2ccc(O)cc2)cc1 | 37.4 |
| CS(=O)(=O)c1ccc(C#CC(=O)c2cccc3ccccc23)cc1 | 8.8 |
| CC(C)c1ccc(C(=O)C#Cc2ccc(S(C)(=O)=O)cc2)cc1 | 48.1 |
| COC(=O)c1ccc(C(=O)C#Cc2ccc(S(C)(=O)=O)cc2)cc1 | 21.5 |
| CS(=O)(=O)c1ccc(C#CC(=O)c2ccoc2)cc1 | 26.4 |
| COc1ccc(C(=O)C#Cc2ccc(S(C)(=O)=O)cc2)c2ccccc12 | 24 |

tested on: Rattus norvegicus; test: Inhibitory activity against 4% NaCl-induced abdominal constriction in Sprague-Dawley rat after 30 min of 30 mg/kg, po; assay type: functional; settings: Abdomen, 0.5 h

| SMILES | inhibition in vivo at 30 mg/kg [%] |
| --- | --- |
| CS(=O)(=O)c1ccc(C#CC(=O)c2ccc(O)cc2)cc1 | 52.4 |
| CS(=O)(=O)c1ccc(C#CC(=O)c2cccc3ccccc23)cc1 | 56.4 |
| CC(C)c1ccc(C(=O)C#Cc2ccc(S(C)(=O)=O)cc2)cc1 | 40.7 |
| COC(=O)c1ccc(C(=O)C#Cc2ccc(S(C)(=O)=O)cc2)cc1 | 56.2 |
| CS(=O)(=O)c1ccc(C#CC(=O)c2ccoc2)cc1 | 57.7 |
| COc1ccc(C(=O)C#Cc2ccc(S(C)(=O)=O)cc2)c2ccccc12 | 56.7 |

target: T2, 5-lipoxygenase (Solanum tuberosum, UniProt O49150); test: Inhibitory activity against potato 5LOX; settings: not given
T2 sequence (O49150 whole entry): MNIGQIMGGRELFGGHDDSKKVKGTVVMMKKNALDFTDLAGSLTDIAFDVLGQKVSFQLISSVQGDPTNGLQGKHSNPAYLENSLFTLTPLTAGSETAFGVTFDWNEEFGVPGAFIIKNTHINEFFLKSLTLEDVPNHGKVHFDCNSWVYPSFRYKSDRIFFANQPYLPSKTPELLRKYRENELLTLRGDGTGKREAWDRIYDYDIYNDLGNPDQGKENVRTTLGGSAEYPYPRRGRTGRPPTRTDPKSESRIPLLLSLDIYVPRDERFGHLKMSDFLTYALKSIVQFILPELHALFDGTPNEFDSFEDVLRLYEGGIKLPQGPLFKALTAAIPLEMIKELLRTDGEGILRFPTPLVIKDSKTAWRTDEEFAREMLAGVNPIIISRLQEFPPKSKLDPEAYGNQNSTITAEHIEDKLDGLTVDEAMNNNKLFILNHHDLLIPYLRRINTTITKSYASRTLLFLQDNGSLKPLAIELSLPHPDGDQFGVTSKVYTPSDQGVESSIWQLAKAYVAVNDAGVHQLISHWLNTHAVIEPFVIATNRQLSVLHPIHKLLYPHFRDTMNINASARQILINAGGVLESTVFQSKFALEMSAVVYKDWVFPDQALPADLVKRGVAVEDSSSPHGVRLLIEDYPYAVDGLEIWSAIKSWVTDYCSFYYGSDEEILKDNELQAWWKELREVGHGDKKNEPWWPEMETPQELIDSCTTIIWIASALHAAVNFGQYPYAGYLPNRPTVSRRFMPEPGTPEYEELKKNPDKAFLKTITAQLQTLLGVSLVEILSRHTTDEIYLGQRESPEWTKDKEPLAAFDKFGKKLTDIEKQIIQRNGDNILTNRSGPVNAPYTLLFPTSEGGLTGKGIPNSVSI

| SMILES | IC50 [µM] |
| --- | --- |
| CS(=O)(=O)c1ccc(C#CC(=O)c2ccc(O)cc2)cc1 | 0.3 |
| COc1ccc(C(=O)C#Cc2ccc(S(C)(=O)=O)cc2)cc1OC | 1 |
| CS(=O)(=O)c1ccc(C#CC(=O)c2ccc([N+](=O)[O-])cc2)cc1 | 6.2 |
| CCCCc1ccc(C(=O)C#Cc2ccc(S(C)(=O)=O)cc2)cc1 | 4.5 |
| CS(=O)(=O)c1ccc(C#CC(=O)c2cccc3ccccc23)cc1 | > 10 |
| CS(=O)(=O)c1ccc(C#CC(=O)c2ccno2)cc1 | 1.5 |
| COC(=O)c1ccc(C(=O)C#Cc2ccc(S(C)(=O)=O)cc2)cc1 | > 10 |
| CS(=O)(=O)c1ccc(C#CC(=O)c2ccoc2)cc1 | 0.1 |
| CS(=O)(=O)c1ccc(C#CC(=O)c2ccc(S(C)(=O)=O)cc2)cc1 | > 10 |
| COc1ccc(C(=O)C#Cc2ccc(S(C)(=O)=O)cc2)c2ccccc12 | > 10 |
| CCCc1ccc(C(=O)C#Cc2ccc(S(C)(=O)=O)cc2)cc1 | 3.2 |
| CS(=O)(=O)c1ccc(C#CC(=O)c2cccc([N+](=O)[O-])c2)cc1 | > 10 |

tested on: Rattus norvegicus; test: Inhibitory activity against 4% NaCl-induced abdominal constriction in Sprague-Dawley rat after 60 min of 30 mg/kg, po; assay type: functional; settings: Abdomen, 1 h

| SMILES | inhibition in vivo at 30 mg/kg [%] |
| --- | --- |
| CS(=O)(=O)c1ccc(C#CC(=O)c2ccc(O)cc2)cc1 | 56.6 |
| CS(=O)(=O)c1ccc(C#CC(=O)c2cccc3ccccc23)cc1 | 40.3 |
| CC(C)c1ccc(C(=O)C#Cc2ccc(S(C)(=O)=O)cc2)cc1 | 53.7 |
| COC(=O)c1ccc(C(=O)C#Cc2ccc(S(C)(=O)=O)cc2)cc1 | 71.2 |
| CS(=O)(=O)c1ccc(C#CC(=O)c2ccoc2)cc1 | 76.6 |
| COc1ccc(C(=O)C#Cc2ccc(S(C)(=O)=O)cc2)c2ccccc12 | 36.7 |

target: T3, Prostaglandin G/H synthase 1 (Ovis aries, UniProt P05979); test: Inhibitory activity against ovine COX1; settings: not given
T3 sequence (P05979 whole entry): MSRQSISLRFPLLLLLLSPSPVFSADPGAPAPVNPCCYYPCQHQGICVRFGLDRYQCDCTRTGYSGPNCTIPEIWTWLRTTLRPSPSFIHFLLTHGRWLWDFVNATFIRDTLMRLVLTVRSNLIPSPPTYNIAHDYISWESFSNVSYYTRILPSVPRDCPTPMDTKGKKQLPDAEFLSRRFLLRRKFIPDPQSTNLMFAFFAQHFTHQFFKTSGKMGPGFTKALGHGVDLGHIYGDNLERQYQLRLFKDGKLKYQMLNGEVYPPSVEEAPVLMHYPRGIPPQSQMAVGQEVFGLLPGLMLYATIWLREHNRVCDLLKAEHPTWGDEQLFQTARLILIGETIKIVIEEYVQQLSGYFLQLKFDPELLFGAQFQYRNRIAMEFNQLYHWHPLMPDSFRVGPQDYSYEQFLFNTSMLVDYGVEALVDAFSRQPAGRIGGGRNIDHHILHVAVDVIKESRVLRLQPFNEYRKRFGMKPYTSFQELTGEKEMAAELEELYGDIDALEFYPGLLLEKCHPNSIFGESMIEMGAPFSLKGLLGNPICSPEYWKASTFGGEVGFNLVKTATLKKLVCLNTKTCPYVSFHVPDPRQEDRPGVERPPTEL

| SMILES | IC50 [µM] |
| --- | --- |
| COc1ccc(C(=O)C#Cc2ccc(S(C)(=O)=O)cc2)cc1OC | 3.3 |
| CS(=O)(=O)c1ccc(C#CC(=O)c2ccc([N+](=O)[O-])cc2)cc1 | 0.25 |
| CCCCc1ccc(C(=O)C#Cc2ccc(S(C)(=O)=O)cc2)cc1 | > 100 |
| CS(=O)(=O)c1ccc(C#CC(=O)c2cccc3ccccc23)cc1 | > 100 |
| CS(=O)(=O)c1ccc(C#CC(=O)c2ccno2)cc1 | 32.2 |
| CC(C)c1ccc(C(=O)C#Cc2ccc(S(C)(=O)=O)cc2)cc1 | 9.2 |
| COC(=O)c1ccc(C(=O)C#Cc2ccc(S(C)(=O)=O)cc2)cc1 | > 100 |
| CS(=O)(=O)c1ccc(C#CC(=O)c2ccoc2)cc1 | 1 |
| CS(=O)(=O)c1ccc(C#CC(=O)c2ccc(S(C)(=O)=O)cc2)cc1 | > 100 |
| COc1ccc(C(=O)C#Cc2ccc(S(C)(=O)=O)cc2)c2ccccc12 | > 100 |
| CSc1ccc(C(=O)C#Cc2ccc(S(C)(=O)=O)cc2)cc1 | 9.2 |
| CCCc1ccc(C(=O)C#Cc2ccc(S(C)(=O)=O)cc2)cc1 | 3.2 |
| CS(=O)(=O)c1ccc(C#CC(=O)c2cccc([N+](=O)[O-])c2)cc1 | 2 |
